Measurements from ChEMBL document CHEMBL3286359, “Synthesis and SAR of substituted pyrazolo[1,5-a]quinazolines as dual mGlu(2)/mGlu(3) NAMs” (Bioorg Med Chem Lett, 2014).
Activity calls are given as the source filed them. The calls are words filed in the database; no cut-off is given here.

Experiments:
Format in all cases: functional, cell-based
[1] = molecular target: Metabotropic glutamate receptor 2 (Rattus norvegicus) (UniProt P31421); assay: Inhibition of rat mGlu2 receptor transfected in HEK293 cells coexpressing mouse Galpha15 assessed as decrease in glutamate-induced calcium signaling at 3 uM by fluorescence plate reader analysis in presence of glutamate at EC76 concentration
Chain of Metabotropic glutamate receptor 2 (Rattus norvegicus) (P31421 19-872 limits assumed): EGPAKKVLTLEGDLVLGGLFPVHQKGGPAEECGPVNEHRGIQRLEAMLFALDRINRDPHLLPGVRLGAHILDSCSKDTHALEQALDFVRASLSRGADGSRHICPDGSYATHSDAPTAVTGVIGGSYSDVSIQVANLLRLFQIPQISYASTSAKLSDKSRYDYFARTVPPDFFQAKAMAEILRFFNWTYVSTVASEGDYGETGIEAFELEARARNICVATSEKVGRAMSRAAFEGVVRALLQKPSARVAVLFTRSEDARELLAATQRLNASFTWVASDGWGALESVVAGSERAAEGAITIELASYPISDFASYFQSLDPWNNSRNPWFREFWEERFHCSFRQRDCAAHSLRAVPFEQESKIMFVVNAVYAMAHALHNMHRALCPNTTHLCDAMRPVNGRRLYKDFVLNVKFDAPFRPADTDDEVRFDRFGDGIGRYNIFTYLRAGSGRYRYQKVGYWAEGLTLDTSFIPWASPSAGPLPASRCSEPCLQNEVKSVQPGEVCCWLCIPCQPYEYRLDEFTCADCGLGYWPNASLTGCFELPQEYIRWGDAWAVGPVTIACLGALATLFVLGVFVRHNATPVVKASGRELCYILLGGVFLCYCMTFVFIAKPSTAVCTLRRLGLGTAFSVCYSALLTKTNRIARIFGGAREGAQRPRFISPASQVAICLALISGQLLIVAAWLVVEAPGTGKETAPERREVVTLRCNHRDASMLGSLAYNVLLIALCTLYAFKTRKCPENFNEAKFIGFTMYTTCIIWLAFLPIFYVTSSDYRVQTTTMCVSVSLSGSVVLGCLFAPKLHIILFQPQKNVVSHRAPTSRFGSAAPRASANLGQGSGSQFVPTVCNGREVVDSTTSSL

[2] = molecular target: Metabotropic glutamate receptor 3 (Rattus norvegicus) (UniProt P31422); assay: Inhibition of rat mGlu3 receptor transfected in HEK293 cells coexpressing mouse Galpha15 assessed as decrease in glutamate-induced calcium signaling at 3 uM by fluorescence plate reader analysis in presence of glutamate at EC87 concentration
Chain of Metabotropic glutamate receptor 3 (Rattus norvegicus) (P31422 23-879 limits assumed): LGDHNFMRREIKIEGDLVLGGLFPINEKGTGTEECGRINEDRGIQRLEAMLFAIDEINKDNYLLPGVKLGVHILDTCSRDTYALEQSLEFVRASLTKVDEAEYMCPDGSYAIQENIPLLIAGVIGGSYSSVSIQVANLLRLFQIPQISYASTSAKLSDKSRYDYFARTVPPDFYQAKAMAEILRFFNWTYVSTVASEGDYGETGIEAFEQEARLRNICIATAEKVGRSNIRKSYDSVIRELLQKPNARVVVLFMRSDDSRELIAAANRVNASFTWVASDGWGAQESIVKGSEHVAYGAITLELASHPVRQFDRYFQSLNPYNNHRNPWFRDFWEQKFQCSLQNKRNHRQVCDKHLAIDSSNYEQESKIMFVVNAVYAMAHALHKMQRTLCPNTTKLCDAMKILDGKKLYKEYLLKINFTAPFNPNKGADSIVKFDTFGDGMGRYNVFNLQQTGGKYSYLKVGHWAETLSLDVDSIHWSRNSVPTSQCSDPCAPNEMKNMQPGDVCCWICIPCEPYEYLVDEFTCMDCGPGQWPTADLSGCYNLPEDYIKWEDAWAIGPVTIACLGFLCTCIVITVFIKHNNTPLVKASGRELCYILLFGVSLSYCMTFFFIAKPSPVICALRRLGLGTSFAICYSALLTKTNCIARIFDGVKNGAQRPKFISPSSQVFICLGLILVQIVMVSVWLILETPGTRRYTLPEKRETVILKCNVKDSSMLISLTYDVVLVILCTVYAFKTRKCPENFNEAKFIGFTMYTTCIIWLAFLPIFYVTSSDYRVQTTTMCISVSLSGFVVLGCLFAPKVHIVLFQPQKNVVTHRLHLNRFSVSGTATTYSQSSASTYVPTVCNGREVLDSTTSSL

[3] = molecular target: Metabotropic glutamate receptor 2 (Rattus norvegicus) (UniProt P31421); assay: Positive allosteric modulatory activity at rat mGlu2 receptor transfected in HEK293 cells co-expressing mouse Galpha15 assessed as potentiation of glutamate-dependent calcium signaling at 3 uM by fluorescence plate reader analysis in presence of glutamate at EC20 concentration
[4] = molecular target: Metabotropic glutamate receptor 3 (Rattus norvegicus) (UniProt P31422); assay: Positive allosteric modulatory activity at rat mGlu3 receptor transfected in HEK293 cells co-expressing mouse Galpha15 assessed as potentiation of glutamate-dependent calcium signaling at 3 uM by fluorescence plate reader analysis in presence of glutamate at EC20 concentration
[5] = molecular target: Metabotropic glutamate receptor 3 (Rattus norvegicus, UniProt P31422); assay: Inhibition of rat mGlu3 receptor transfected in HEK293 cells coexpressing mouse Galpha15 assessed as decrease in glutamate-induced calcium signaling by fluorescence plate reader analysis in presence of glutamate at EC87 concentration
Chain of Metabotropic glutamate receptor 3 (P31422 whole entry): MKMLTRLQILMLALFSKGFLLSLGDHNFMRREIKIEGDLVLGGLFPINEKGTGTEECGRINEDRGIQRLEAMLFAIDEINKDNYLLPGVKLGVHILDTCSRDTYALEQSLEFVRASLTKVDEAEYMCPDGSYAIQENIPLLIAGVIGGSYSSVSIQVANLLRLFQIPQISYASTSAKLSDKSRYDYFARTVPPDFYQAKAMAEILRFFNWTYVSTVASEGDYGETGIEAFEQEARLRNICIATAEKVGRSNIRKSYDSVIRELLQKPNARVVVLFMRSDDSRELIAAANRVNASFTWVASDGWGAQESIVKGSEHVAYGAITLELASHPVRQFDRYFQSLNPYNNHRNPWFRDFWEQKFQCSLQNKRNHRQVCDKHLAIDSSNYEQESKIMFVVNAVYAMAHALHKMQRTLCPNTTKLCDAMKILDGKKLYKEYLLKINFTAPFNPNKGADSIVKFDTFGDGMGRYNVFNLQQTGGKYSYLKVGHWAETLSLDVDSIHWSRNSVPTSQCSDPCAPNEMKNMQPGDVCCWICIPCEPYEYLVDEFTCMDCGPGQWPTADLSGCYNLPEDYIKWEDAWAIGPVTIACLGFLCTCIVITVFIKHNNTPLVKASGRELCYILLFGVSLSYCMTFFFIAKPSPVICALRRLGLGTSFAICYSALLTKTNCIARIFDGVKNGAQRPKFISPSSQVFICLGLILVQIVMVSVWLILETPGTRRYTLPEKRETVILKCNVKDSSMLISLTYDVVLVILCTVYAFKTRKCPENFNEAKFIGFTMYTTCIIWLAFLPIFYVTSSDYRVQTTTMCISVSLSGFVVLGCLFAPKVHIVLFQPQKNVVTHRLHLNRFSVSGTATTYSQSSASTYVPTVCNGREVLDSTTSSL

[6] = molecular target: Metabotropic glutamate receptor 2 (Rattus norvegicus, UniProt P31421); assay: Inhibition of rat mGlu2 receptor transfected in HEK293 cells coexpressing mouse Galpha15 assessed as decrease in glutamate-induced calcium signaling by fluorescence plate reader analysis in presence of glutamate at EC76 concentration
Chain of Metabotropic glutamate receptor 2 (P31421 whole entry): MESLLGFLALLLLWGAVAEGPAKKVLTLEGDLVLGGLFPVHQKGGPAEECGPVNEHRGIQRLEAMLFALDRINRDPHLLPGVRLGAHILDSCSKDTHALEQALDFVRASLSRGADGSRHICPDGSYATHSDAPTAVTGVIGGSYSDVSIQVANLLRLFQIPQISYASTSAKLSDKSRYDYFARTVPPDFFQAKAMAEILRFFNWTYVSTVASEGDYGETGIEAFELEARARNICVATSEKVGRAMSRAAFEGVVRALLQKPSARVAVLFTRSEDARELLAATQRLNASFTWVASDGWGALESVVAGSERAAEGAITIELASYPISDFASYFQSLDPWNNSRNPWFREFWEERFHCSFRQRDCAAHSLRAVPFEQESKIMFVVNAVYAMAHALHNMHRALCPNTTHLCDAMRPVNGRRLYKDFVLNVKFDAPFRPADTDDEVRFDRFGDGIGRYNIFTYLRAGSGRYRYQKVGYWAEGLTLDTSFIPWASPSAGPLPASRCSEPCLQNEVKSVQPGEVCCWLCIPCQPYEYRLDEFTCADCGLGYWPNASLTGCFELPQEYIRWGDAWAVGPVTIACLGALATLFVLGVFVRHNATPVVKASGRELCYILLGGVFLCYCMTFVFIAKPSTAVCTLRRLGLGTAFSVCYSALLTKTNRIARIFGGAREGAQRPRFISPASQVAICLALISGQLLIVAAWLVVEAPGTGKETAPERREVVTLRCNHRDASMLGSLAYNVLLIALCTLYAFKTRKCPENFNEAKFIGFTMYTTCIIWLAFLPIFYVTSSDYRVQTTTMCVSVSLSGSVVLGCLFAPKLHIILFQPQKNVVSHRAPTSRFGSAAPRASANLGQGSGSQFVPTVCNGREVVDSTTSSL

[7] = molecular target: Metabotropic glutamate receptor 3 (Rattus norvegicus) (UniProt P31422); assay: Inhibition of rat mGlu3 receptor transfected in HEK293 cells coexpressing mouse Galpha15 assessed as decrease in glutamate-induced calcium signaling at 1 uM by fluorescence plate reader analysis in presence of glutamate at EC87 concentration
[8] = molecular target: Metabotropic glutamate receptor 2 (Rattus norvegicus) (UniProt P31421); assay: Inhibition of rat mGlu2 receptor transfected in HEK293 cells coexpressing mouse Galpha15 assessed as decrease in glutamate-induced calcium signaling at 1 uM by fluorescence plate reader analysis in presence of glutamate at EC76 concentration

| inhibition [1] [%] | inhibition [2] [%] | Activity [3] | Activity [4] | IC50 [5] [µM] | IC50 [6] [µM] | inhibition [7] [%] | inhibition [8] [%] | Compound |
| --- | --- | --- | --- | --- | --- | --- | --- | --- |
| 4 | 33 | – | – | – | – | – | – | Cn1c(=O)c2ccc(-c3cnc4ccccc4c3)cc2n2nc(-c3ccccc3)cc12 |
| – | – | inactive | inactive | 0.53 | 1.79 | – | – | Cc1cccc(-c2cc3n(C)c(=O)c4ccc(-c5cccnc5)cc4n3n2)c1 |
| – | – | inactive | inactive | 0.067 | 0.427 | – | – | Cn1c(=O)c2ccc(-c3cccnc3)cc2n2nc(-c3ccc(F)cc3)cc12 |
| – | – | – | – | 0.509 | 1.77 | – | – | Cn1c(=O)c2ccc(-c3ccncc3)cc2n2nc(-c3ccccc3)cc12 |
| – | – | – | – | 3.15 | 4.65 | – | – | O=c1c2ccc(-c3cccnc3)cc2n2nc(-c3ccccc3)cc2n1CCO |
| – | – | – | – | 4.51 | > 10 | – | – | Cn1c(=O)c2ccc(-c3ccc4ccncc4c3)cc2n2nc(-c3ccccc3)cc12 |
| – | – | inactive | inactive | 1.25 | 0.847 | 60 | 60 | Cn1c(=O)c2ccc(-c3cccc(S(N)(=O)=O)c3)cc2n2nc(-c3ccc(Cl)cc3)cc12 |
| – | 0 | inactive | inactive | – | – | – | – | COc1ccc(-c2ccc3c(=O)n(C)c4cc(-c5ccccc5)nn4c3c2)cc1 |
| 16 | 38 | inactive | inactive | – | – | – | – | Cc1ccc2c(=O)n(C)c3cc(-c4cccc(F)c4)nn3c2c1 |
| 11 | 33 | inactive | inactive | – | – | 60 | 60 | Cc1ccc2c(=O)n(C)c3cc(-c4ccc(Cl)cc4)nn3c2c1 |
| 9 | 31 | inactive | inactive | – | – | – | – | COc1ccc(-c2ccc3c(=O)n(C)c4cc(-c5cccc(Cl)c5)nn4c3c2)cc1 |
| – | – | inactive | inactive | > 10 | > 10 | – | – | Cn1c(=O)c2ccc(-c3ccccc3)cc2n2nc(-c3ccccc3)cc12 |
| 7 | 49 | inactive | inactive | – | – | – | – | Cc1cccc(-c2cc3n(C)c(=O)c4ccc(-c5ccccc5)cc4n3n2)c1 |
| 6 | 21 | inactive | inactive | – | – | 60 | 60 | COc1ccc(-c2ccc3c(=O)n(C)c4cc(-c5ccc(Cl)cc5)nn4c3c2)cc1 |
| 6 | 2 | inactive | inactive | – | – | – | – | COc1ccc(-c2ccc3c(=O)n(C)c4cc(-c5cccc(F)c5)nn4c3c2)cc1 |
| 17 | 59 | inactive | inactive | – | – | – | – | Cc1ccc2c(=O)n(C)c3cc(-c4ccccc4)nn3c2c1 |
| 0 | 3 | – | – | – | – | – | – | O=c1c2ccc(-c3ccccc3)cc2n2nc(-c3ccccc3)cc2n1CCO |
| – | – | inactive | inactive | > 10 | > 10 | – | – | Cn1c(=O)c2ccc(-c3cccnc3)cc2n2nc(-c3cccc(Br)c3)cc12 |
| – | – | inactive | inactive | 0.293 | 0.564 | – | – | Cn1c(=O)c2ccc(-c3cccnc3)cc2n2nc(-c3cccc(Cl)c3)cc12 |
| – | – | inactive | inactive | 0.884 | – | – | – | Cn1c(=O)c2ccc(-c3cccc(S(N)(=O)=O)c3)cc2n2nc(-c3ccccc3)cc12 |
| – | – | – | – | > 10 | > 10 | – | – | Cn1c(=O)c2ccc(-c3ccc4cn[nH]c4c3)cc2n2nc(-c3ccccc3)cc12 |
| – | – | inactive | inactive | 0.247 | 1.56 | – | – | Cn1c(=O)c2ccc(-c3cccnc3)cc2n2nc(-c3cccc(F)c3)cc12 |
| 0 | 34 | inactive | inactive | – | – | – | – | COc1ccc(-c2ccc3c(=O)n(C)c4cc(-c5cccc(C)c5)nn4c3c2)cc1 |

| inhibition [1] [%] | inhibition [2] [%] | Activity [3] | Activity [4] | IC50 [5] [µM] | IC50 [6] [µM] | inhibition [7] [%] | inhibition [8] [%] | Compound |
| --- | --- | --- | --- | --- | --- | --- | --- | --- |
| – | – | inactive | inactive | 0.165 | 0.852 | – | – | Cn1c(=O)c2ccc(-c3cccnc3)cc2n2nc(-c3ccccc3)cc12 |
| 2 | 6 | – | – | – | – | – | – | O=c1[nH]c2cc(-c3ccccc3)nn2c2cc(-c3ccccc3)ccc12 |
| – | – | inactive | inactive | > 10 | > 10 | – | – | COc1cccc(-c2cc3n(C)c(=O)c4ccc(C)cc4n3n2)c1 |
| – | – | inactive | inactive | 0.645 | 1.11 | 60 | 60 | Cn1c(=O)c2ccc(-c3cccnc3)cc2n2nc(-c3ccc(Cl)cc3)cc12 |
| – | – | inactive | inactive | 1.18 | 3.12 | – | – | COc1cccc(-c2cc3n(C)c(=O)c4ccc(-c5cccnc5)cc4n3n2)c1 |
| 0 | 16 | – | – | – | – | – | – | Cn1c(=O)c2ccc(-c3ccc4nccnc4c3)cc2n2nc(-c3ccccc3)cc12 |
| – | – | inactive | inactive | > 10 | > 10 | – | – | Cc1ccc2c(=O)n(C)c3cc(-c4ccc(F)cc4)nn3c2c1 |
| – | – | inactive | inactive | 0.696 | 1.39 | – | – | COc1cccc(-c2cc3n(C)c(=O)c4ccc(-c5cccc(S(N)(=O)=O)c5)cc4n3n2)c1 |
| 3 | 8 | – | – | – | – | – | – | CC(=O)n1c(=O)c2ccc(-c3ccccc3)cc2n2nc(-c3ccccc3)cc12 |
| 7 | 19 | inactive | inactive | – | – | – | – | Cn1c(=O)c2ccc(-c3ccccc3)cc2n2nc(-c3cccc(Cl)c3)cc12 |
| 4 | 23 | inactive | inactive | – | – | – | – | COc1ccc(-c2ccc3c(=O)n(C)c4cc(-c5cccc(Br)c5)nn4c3c2)cc1 |
| 8 | 28 | inactive | inactive | – | – | – | – | Cn1c(=O)c2ccc(-c3ccccc3)cc2n2nc(-c3cccc(Br)c3)cc12 |
| 9 | 34 | – | – | – | – | – | – | Cn1c(=O)c2ccc(-c3ccc4cc[nH]c4c3)cc2n2nc(-c3ccccc3)cc12 |
| 2 | 39 | inactive | inactive | – | – | – | – | Cn1c(=O)c2ccc(-c3ccccc3)cc2n2nc(-c3cccc(F)c3)cc12 |
| – | – | inactive | inactive | > 10 | > 10 | – | – | COc1cccc(-c2cc3n(C)c(=O)c4ccc(-c5ccccc5)cc4n3n2)c1 |
| 4 | 31 | inactive | inactive | – | – | 60 | 60 | Cn1c(=O)c2ccc(-c3ccccc3)cc2n2nc(-c3ccc(Cl)cc3)cc12 |
| – | – | – | – | > 10 | > 10 | – | – | CC(=O)n1c(=O)c2ccc(-c3cccnc3)cc2n2nc(-c3ccccc3)cc12 |
| 4 | 8 | – | – | – | – | – | – | O=c1[nH]c2cc(-c3ccccc3)nn2c2cc(-c3cccnc3)ccc12 |
| – | – | inactive | inactive | 1.99 | 3.95 | – | – | Cn1c(=O)c2ccc(-c3cccc(S(N)(=O)=O)c3)cc2n2nc(-c3ccc(F)cc3)cc12 |
| 6 | 48 | inactive | inactive | – | – | – | – | COc1ccc(-c2ccc3c(=O)n(C)c4cc(-c5cccc(OC)c5)nn4c3c2)cc1 |
| 12 | 64 | inactive | inactive | – | – | – | – | Cn1c(=O)c2ccc(-c3ccccc3)cc2n2nc(-c3ccc(F)cc3)cc12 |
| – | – | inactive | inactive | > 10 | > 10 | – | – | COc1ccc(-c2ccc3c(=O)n(C)c4cc(-c5ccc(F)cc5)nn4c3c2)cc1 |
| – | – | inactive | inactive | > 10 | > 10 | – | – | Cn1c(=O)c2ccc(-c3cccc(S(N)(=O)=O)c3)cc2n2nc(-c3cccc(F)c3)cc12 |
